Reference: the NIST ThermoML archive (doi:10.1021/je050074w)

Assay: an = mass per volume of the nth substance listed, in kg/m3
Settings: Wilhelmy plate method

CCCCCCCCCCCCOS(=O)(=O)[O-].[Na+] [sodium dodecyl sulfate] + O
surface tension liquid-gas [mN/m]
Settings	a1 = 0.00627	a1 = 0.0157	a1 = 0.0273	a1 = 0.0338
288.15 K	71.99	65.28	64.13	69.24
289.15 K	71.91	65.17	64.05	69.1
290.15 K	71.74	65	63.88	68.89
291.15 K	71.58	64.83	63.72	68.76
292.15 K	71.41	64.67	63.56	68.59
293.15 K	71.24	64.48	63.37	68.45
294.15 K	71.07	64.32	63.19	68.28
295.15 K	70.89	64.17	63.02	68.11
296.15 K	70.76	64.03	62.88	67.97
297.15 K	70.59	63.86	62.74	67.78
298.15 K	70.43	63.71	62.6	67.63
299.15 K	70.29	63.57	62.49	67.44
300.15 K	70.16	63.41	62.36	67.29
301.15 K	70.01	63.26	62.25	67.11
302.15 K	69.84	63.08	62.11	66.95
303.15 K	69.68	62.94	62.01	66.77
304.15 K	69.53	62.76	61.9	66.61
305.15 K	69.39	62.66	61.83	66.42
306.15 K	69.23	62.52	61.72	66.25
307.15 K	69.08	62.32	61.62	66.04
308.15 K	68.94	62.16	61.54	–
